Results on six molecules are retold here after US7862798B2, “Vitamin-targeted imaging agents” (Endocyte, Inc., priority 2002, dated 2011).

One data set deals with FR-positive KB tumors. Nature of the data set: Tissue distribution, KB tumor model (Example 16, Table 5). The settings on record: for Blood / Heart / Kidney (one) / Liver & Gall Bladder / Lungs / Muscle / Spleen / Stomach, Intestines & Contents / Tumor: 99mTc-labelled conjugate, 4 hours post i.v.; for accumulation in FR-positive KB tumors and kidneys on co-administration of free folate: about 20-fold excess of free folate. The data set is classed as in vivo, nude mice. As for the experimental part: The protocols used in this example are similar to those described in Example 11. The ability of ^99mTc-EC11 (peptide-A1), ^99mTc-EC13 (peptide-A3), and ^99mTc-EC14 (peptide-A2) to target tumors in vivo was assessed using the FR-positive KB tumor model.
FR-positive KB tumor cells (0.25×10^6 per animal) were inoculated subcutaneously in the intracapsular region. Fourteen days after tumor cell inoculation, the animals (n=4/group) were injected intravenously with ^99mTc-EC11, ^99mTc-EC13, or ^99mTc-EC14 at the doses (about 12 μg/kg) of the conjugates shown in Table 5 below. Stocks of ^99mTc-EC11, ^99mTc-EC13, and ^99mTc-EC14 solutions were prepared on the day of use as described above. About a 20-fold excess of free folate (about 200 μg/kg) was co-administered to control animals (n=4/group). […] Selected tissues were removed, weighed, and counted in an automatic gamma counter to determine ^99mTc distribution. Uptake of the radiopharmaceutical in terms of percentage injected dose of wet weight tissue (% ID/g) was calculated by reference to standards prepared from dilutions of the injected preparation.

Another data set concerns FR-positive M109 tumors. Nature of the data set: Tissue distribution, subcutaneous M109 tumors (Example 11). As for the experimental part:
The ability of ^99mTc-EC20 to target tumors in vivo was assessed using a FR-positive M109 model.
Four to five week-old mice (Balb/c strain) were purchased from Harlan Sprague Dawley, Inc. (Indianapolis, Ind.) and were maintained on a folate-free diet for a total of three weeks prior to the experiment. Syngeneic, FR-positive M109 tumor cells (1×10^6 per animal) were inoculated in the subcutis of the right axilla two weeks prior to the experiment.
Animals received an approximate 40 μmol/kg i.v. dose of test article in 100 μL volume via a lateral tail vein during brief diethyl ether anesthesia. Four hours post-injection, animals were sacrificed by CO2 asphyxiation, and dissected. Selected tissues were removed, weighed, and counted to determine ^99mTc distribution. CPM values were decay-corrected, and results were tabulated as % injected dose per gram of wet weight tissue.

Setting [1] is: folic acid dihydrate co-injected (about 200 μg/kg).
Setting [2] is: folic acid dihydrate co-injected.
Where [3] appears, read: 4 hr post intravenous injection.

As for `Nc1nc2ncc(CNc3ccc(C(=O)N[C@@H](CCC(=O)N[C@H](CCC(=O)NC[C@H](N)C(=O)N[C@@H](CC(=O)O)C(=O)N[C@@H](CS)C(=O)O)C(=O)O)C(=O)O)cc3)nc2c(=O)[nH]1` [EC14, Pte-D-Glu-D-Glu-βDpr-Asp-Cys], in the data set with FR-positive KB tumors (setting [1]), the Blood is on record as 0.12 ± 0.02 Percentage of Injected 99mTc D, the Heart is recorded as 0.24 ± 0.01 Percentage of Injected 99mTc D, the “Kidney (one)” value is 20.6 ± 2.4 Percentage of Injected 99mTc D and the “Liver & Gall Bladder” value is on record as 0.66 ± 0.07 Percentage of Injected 99mTc D. Moreover, in the data set on FR-positive KB tumors (setting [1]), the Lungs is 0.24 ± 0.02 Percentage of Injected 99mTc D; the Muscle is 0.26 ± 0.02 Percentage of Injected 99mTc D; the Spleen is given as 0.15 ± 0.01 Percentage of Injected 99mTc D; the “Stomach, Intestines & Contents” value was 0.50 ± 0.10 Percentage of Injected 99mTc D. Moreover, the Tumor in the data set with FR-positive KB tumors (setting [1]) was 2.0 ± 0.5 Percentage of Injected 99mTc D. Further, in the data set on FR-positive KB tumors (no folic acid), the Blood is reported as 0.19 ± 0.02 Percentage of Injected 99mTc D, the Heart is 3.0 ± 0.5 Percentage of Injected 99mTc D, the “Kidney (one)” value is given as 44.2 ± 6.4 Percentage of Injected 99mTc D and the “Liver & Gall Bladder” value was 4.5 ± 1.0 Percentage of Injected 99mTc D. In addition, in the data set with FR-positive KB tumors (no folic acid), the Lungs is on record as 1.6 ± 0.3 Percentage of Injected 99mTc D; the Muscle is listed as 2.4 ± 0.4 Percentage of Injected 99mTc D; the Spleen was 0.41 ± 0.06 Percentage of Injected 99mTc D; the “Stomach, Intestines & Contents” value is 1.4 ± 0.1 Percentage of Injected 99mTc D. In the data set on FR-positive KB tumors (no folic acid), this molecule yielded a Tumor/Blood of 29.3 ± 5.2, a Tumor/Kidney of 0.13 ± 0.03, a Tumor/Liver of 1.3 ± 0.3 and a Tumor/Muscle of 2.4 ± 0.6. Moreover, the Tumor with FR-positive KB tumors (no folic acid, KB tumor) is on record as 5.57 ± 0.76 Percentage of Injected 99mTc D. In the data set with FR-positive KB tumors (setting [2]), this molecule returned a Tumor/Blood of 17.0 ± 4.5, a Tumor/Kidney of 0.10 ± 0.01, a Tumor/Liver of 3.0 ± 0.6 and a Tumor/Muscle of 7.7 ± 1.7.
Regarding `Nc1nc2ncc(CNc3ccc(C(=O)N[C@@H](CCC(=O)NC[C@H](N)C(=O)N[C@@H](CO)C(=O)N[C@@H](CS)C(=O)O)C(=O)O)cc3)nc2c(=O)[nH]1` [EC13], in the data set with FR-positive KB tumors (setting [1]), the Blood is listed as 0.16 ± 0.02 Percentage of Injected 99mTc D, the Heart is on record as 0.20 ± 0.03 Percentage of Injected 99mTc D, the “Kidney (one)” value is given as 29.1 ± 2.2 Percentage of Injected 99mTc D and the “Liver & Gall Bladder” value was 0.65 ± 0.04 Percentage of Injected 99mTc D. In addition, in the data set on FR-positive KB tumors (setting [1]), the Lungs is reported as 0.23 ± 0.02 Percentage of Injected 99mTc D; the Muscle is listed as 0.21 ± 0.03 Percentage of Injected 99mTc D; the Spleen was 0.15 ± 0.02 Percentage of Injected 99mTc D; the “Stomach, Intestines & Contents” value is 3.7 ± 0.7 Percentage of Injected 99mTc D. In addition, the Tumor in the data set on FR-positive KB tumors (setting [1]) is listed as 1.67 ± 0.24 Percentage of Injected 99mTc D. Moreover, in the data set on FR-positive KB tumors (no folic acid), the Blood was 0.25 ± 0.03 Percentage of Injected 99mTc D, the Heart was 1.6 ± 0.1 Percentage of Injected 99mTc D, the “Kidney (one)” value is 54.5 ± 2.4 Percentage of Injected 99mTc D and the “Liver & Gall Bladder” value is recorded as 3.5 ± 0.7 Percentage of Injected 99mTc D. In the data set with FR-positive KB tumors (no folic acid), the Lungs is 1.1 ± 0.1 Percentage of Injected 99mTc D; the Muscle was 1.7 ± 0.2 Percentage of Injected 99mTc D; the Spleen is on record as 0.39 ± 0.06 Percentage of Injected 99mTc D; the “Stomach, Intestines & Contents” value is 2.5 ± 0.2 Percentage of Injected 99mTc D. In the data set on FR-positive KB tumors (no folic acid), this molecule yielded a Tumor/Blood of 22.5 ± 1.4, a Tumor/Kidney of 0.10 ± 0.01, a Tumor/Liver of 1.6 ± 0.2 and a Tumor/Muscle of 3.3 ± 0.3. In the data set with FR-positive KB tumors (no folic acid, KB tumor), the Tumor was 5.46 ± 0.45 Percentage of Injected 99mTc D. Besides, in the data set with FR-positive KB tumors (setting [2]), the Tumor/Blood is 10.2 ± 1.5.^, the Tumor/Kidney came to 0.058 ± 0.010, the Tumor/Liver worked out at 2.6 ± 0.3 and the Tumor/Muscle was 8.2 ± 2.0.
Regarding “benzoyl-D-Glu-n-Glu-βDpr-Asp-Cys [^99mTc-EC28, reference compound]”, the “accumulation in the kidneys and tumor” value with FR-positive M109 tumors (4 hr post i.v.) was “failed to appreciably accumulate in the kidneys and tumor”. Moreover, in the data set with FR-positive M109 tumors (setting [3]), the Blood was 0.06 ± 0.04 % Injected Dose per Gram Tissue, the Heart is listed as 0.03 ± 0.01 % Injected Dose per Gram Tissue, the Intestine is 0.47 ± 0.19 % Injected Dose per Gram Tissue and the Kidney is recorded as 0.62 ± 0.14 % Injected Dose per Gram Tissue. For the same molecule, in the data set with FR-positive M109 tumors (setting [3]), the Liver is on record as 0.50 ± 0.26 % Injected Dose per Gram Tissue, the Lung is 0.05 ± 0.01 % Injected Dose per Gram Tissue, the Muscle is 0.02 ± 0.01 % Injected Dose per Gram Tissue and the Spleen was 0.60 ± 0.38 % Injected Dose per Gram Tissue. Besides, in the data set on FR-positive M109 tumors (setting [3]), the Stomach is given as 0.21 ± 0.19 % Injected Dose per Gram Tissue and the Tumor/Blood came out at 2.00 ± 0.50. Moreover, in the data set with FR-positive M109 tumors (4 hr post intravenous injection, M109 tumor), the Tumor was 0.11 ± 0.06 % Injected Dose per Gram Tissue.
On to `Nc1nc2ncc(CNc3ccc(C(=O)N[C@@H](CCC(=O)N[C@@H](CCC(=O)NC[C@H](N)C(=O)N[C@@H](CC(=O)O)C(=O)N[C@@H](CS)C(=O)O)C(=O)O)C(=O)O)cc3)nc2c(=O)[nH]1` [EC11], for which, in the data set on FR-positive KB tumors (setting [1]), the Blood is 0.25 ± 0.01 Percentage of Injected 99mTc D, the Heart is listed as 0.36 ± 0.03 Percentage of Injected 99mTc D, the “Kidney (one)” value was 55.5 ± 2.3 Percentage of Injected 99mTc D and the “Liver & Gall Bladder” value is listed as 1.6 ± 0.1 Percentage of Injected 99mTc D. For the same molecule, in the data set with FR-positive KB tumors (setting [1]), the Lungs is on record as 0.35 ± 0.03 Percentage of Injected 99mTc D; the Muscle is recorded as 0.38 ± 0.06 Percentage of Injected 99mTc D; the Spleen is 0.23 ± 0.01 Percentage of Injected 99mTc D; the “Stomach, Intestines & Contents” value is 1.1 ± 0.3 Percentage of Injected 99mTc D. For the same molecule, in the data set on FR-positive KB tumors (setting [1]), the Tumor is reported as 1.47 ± 0.24 Percentage of Injected 99mTc D. Further, in the data set with FR-positive KB tumors (no folic acid), the Blood is recorded as 0.21 ± 0.01 Percentage of Injected 99mTc D, the Heart is recorded as 2.5 ± 0.3 Percentage of Injected 99mTc D, the “Kidney (one)” value is given as 67.8 ± 6.9 Percentage of Injected 99mTc D and the “Liver & Gall Bladder” value is on record as 5.4 ± 1.4 Percentage of Injected 99mTc D. Further, in the data set on FR-positive KB tumors (no folic acid), the Lungs is 1.2 ± 0.2 Percentage of Injected 99mTc D; the Muscle is recorded as 1.8 ± 0.1 Percentage of Injected 99mTc D; the Spleen was 0.38 ± 0.03 Percentage of Injected 99mTc D; the “Stomach, Intestines & Contents” value is on record as 1.4 ± 0.1 Percentage of Injected 99mTc D. In the data set with FR-positive KB tumors (no folic acid), the Tumor/Blood was 13.7 ± 2.1, the Tumor/Kidney worked out at 0.043 ± 0.005, the Tumor/Liver is listed as 0.57 ± 0.14 and the Tumor/Muscle was 1.6 ± 0.3. Besides, in the data set on FR-positive KB tumors (no folic acid, KB tumor), the Tumor was 2.95 ± 0.57 Percentage of Injected 99mTc D. Also, in the data set on FR-positive KB tumors (setting [2]), the Tumor/Blood came to 5.9 ± 0.9, the Tumor/Kidney is recorded as 0.027 ± 0.005, the Tumor/Liver is 0.94 ± 0.09 and the Tumor/Muscle is reported as 3.9 ± 0.08.
As for `Nc1nc2ncc(CNc3ccc(C(=O)N[C@@H](CCC(=O)N[C@@H](CCC(=O)NC[C@@H]4[NH2+][99Tc-]56(=[O])[S]C[C@@H](C(=O)O)[N]5C(=O)[C@H](CC(=O)O)[N]6C4=O)C(=O)O)C(=O)O)cc3)nc2c(=O)[nH]1` [^99mTc-EC11], the “accumulation in FR-positive KB tumors and kidneys on co-administration of free folate” value in the data set on FR-positive KB tumors is given as “blocked”.
For `Nc1nc2ncc(CNc3ccc(C(=O)N[C@@H](CCC(=O)NC[C@@H]4[NH2+][99Tc-]56(=[O])[S]C[C@@H](C(=O)O)[N]5C(=O)[C@H](CO)[N]6C4=O)C(=O)O)cc3)nc2c(=O)[nH]1` [^99mTc-EC13], the “accumulation in FR-positive KB tumors and kidneys on co-administration of free folate” value in the data set with FR-positive KB tumors is recorded as “blocked”.
